Where a name gives a salt, the structure may show the parent alone.
Biological target: T1, recombinant human c-MET kinase enzyme domain (Homo sapiens, UniProt P08581)
T1 construct: Recombinant c-Met kinase domain (amino acids 960-1390); His (N); made in house; host or cells: baculovirus expression system (insect cells; SF21 is named only for the alternative format)
Experiment: c-MET receptor tyrosine kinase Homogeneous Time Resolved Fluorescence assay (HTRF)
Type: biochemical
Details: Biological Example 1 and/or Biological Example 2
Excerpt: Recombinant c-Met kinase domain (amino acids 960-1390) was produced in a baculovirus expression vector as an N-terminal His-tagged fusion protein and purified on a NiNTA column. The resulting purified enzyme was then used in the following c-Met Homogeneous Time Resolved Fluorescence assay (HTRF) to find compounds of the invention and to perform initial activity determinations. Specifically, this assay measures the ability of compounds of the invention to inhibit the phosphorylation of a randomly synthesized, biotinylated heterocopolymeric polypeptide composed of glutamic acid and tyrosine, with an average length of 100 aa. The assay analyzes the amount of phosphorylated polypeptide produced.
The enzymatic phosphorylation of the biotinylated heterocopolymeric polypeptide was performed in a black 384-well plate at ambient temperature in a reaction mixture containing 50 mM HEPES (pH 7.4), 5 mM MgCl2, 5 mM MnCl2, 0.01% Tween-20, and 2 mM DTT, […] recombinant human c-MET kinase enzyme domain, 37 nM biotinylated heterocopolymeric polypeptide composed of glutamic acid and tyrosine, 20 μM ATP, 1% DMSO in the absence or presence of a compound of the invention. The reaction was stopped after a 20-minute incubation by the addition of 80 mM EDTA.
The formation of phosphorylated heterocopolymeric, biotinylated polypeptide was quantified with the HTRF assay technology using an anti-phosphotyrosine antibody, PT66, conjugated to europium cryptate, mixed with a streptavidin-XL665 conjugate. Reduced or inhibited phosphorylation of the heterocopolymeric, biotinylated polypeptide prevents the anti-phosphotyrosine antibody from binding to the peptide, resulting in a loss of energy transfer to the streptavidin-XL665 conjugate.
Following the 384-well enzymatic phosphorylation reaction outlined above, the detection of phosphorylated heterocopolymeric, biotinylated polypeptide was performed by dilution of the stopped reaction mixture 2-fold with 50 mM HEPES (pH 7.0), 500 mM KF, 0.1% BSA, streptavidin-XL665 (20 nM), and anti-phosphotyrosine antibody PT66-crypate conjugate (6.4 ng/well) and incubation for four hours at ambient temperature. Plates were read in an Envision plate reader (PerkinElmer Life and Analytical Sciences, Inc., MA) simultaneously at 620 nm and 665 nm to obtain signal ratios of 665 nm/620 nm. Results of energy transfer were expressed as signal ratios of 665 nm/620 nm. Negative controls were samples without recombinant c-MET or c-MET treated with 100 mM EDTA.
For determination of IC50 values of particular compounds of the invention, eight serially diluted compound concentrations (at 1:3.16 dilution) were used in the assay. Controls without a compound of the invention or with a reference compound were run in parallel in the same assay plate.

T1 sequence (P08581 960-1390): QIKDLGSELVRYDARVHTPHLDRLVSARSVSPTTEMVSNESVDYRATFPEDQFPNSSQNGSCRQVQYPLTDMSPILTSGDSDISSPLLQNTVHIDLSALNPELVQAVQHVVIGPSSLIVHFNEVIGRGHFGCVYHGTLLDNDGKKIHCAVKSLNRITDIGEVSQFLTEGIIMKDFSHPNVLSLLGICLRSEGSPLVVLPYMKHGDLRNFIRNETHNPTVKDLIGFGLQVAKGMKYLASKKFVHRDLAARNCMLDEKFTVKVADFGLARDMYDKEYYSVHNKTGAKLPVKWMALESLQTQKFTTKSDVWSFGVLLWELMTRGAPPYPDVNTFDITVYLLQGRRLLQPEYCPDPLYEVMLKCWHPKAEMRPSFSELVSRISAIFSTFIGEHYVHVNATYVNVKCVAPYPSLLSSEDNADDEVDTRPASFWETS

IC50 [nM]	Structure (SMILES)
< 100	CC1=C(C#N)C(c2ccc3[nH]nc(-c4ccncc4)c3c2)C(C#N)=C(C)N1 [94.2, 1,4-dihydro-2,6-dimethyl-4-[3-(4-pyridinyl)-1H-indazol-5-yl]-3,5-pyridinedicarbonitrile, acetic acid salt]
< 100	CNC(=O)c1n[nH]c2ccc(C3C(C#N)=C(C)NC(C)=C3C#N)cc12 [99.1, 5-(3,5-dicyano-1,4-dihydro-2,6-dimethyl-4-pyridinyl)-N-methyl-1H-indazole-3-carboxamide, TFA salt]
< 100	CC1=C(C#N)C(c2ccc3[nH]nc(C(=O)NCCN(C)C)c3c2)C(C#N)=C(C)N1 [103.1, 5-(3,5-dicyano-1,4-dihydro-2,6-dimethyl-4-pyridinyl)-N-[2-(dimethylamino)-ethyl]-1H-indazole-3-carboxamide, TFA salt]
< 100	CC1=C(C#N)C(c2ccc3[nH]nc(C(=O)NCCCN(C)C)c3c2)C(C#N)=C(C)N1 [106.1, 5-(3,5-dicyano-2,6-dimethyl-1,4-dihydro-pyridin-4-yl)-1H-indazole-3-carboxylic acid (3-dimethylamino-propyl)-amide, TFA salt]
< 100	CC1=C(C#N)C(c2ccc3[nH]nc(C(=O)N(C)C)c3c2)C(C#N)=C(C)N1 [114.1, 5-(3,5-dicyano-2,6-dimethyl-1,4-dihydro-pyridin-4-yl)-1H-indazole-3-carboxylic acid dimethylamide, TFA salt]
< 100	CCCN1CCN(c2n[nH]c3ccc(C4C(C#N)=C(C)NC(C)=C4C#N)cc23)CC1 [165.1, 2,6-dimethyl-4-[3-(4-propyl-piperazin-1-yl)-1H-indazol-5-yl]-1,4-dihydropyridine-3,5-dicarbonitrile, TFA salt]
< 100	CCOC(=O)N1CCN(Cc2n[nH]c3ccc(C4C(C#N)=C(C)NC(C)=C4C#N)cc23)CC1 [167.1, 4-[5-(3,5-Dicyano-2,6-dimethyl-1,4-dihydro-pyridin-4-yl)-1H-indazol-3-ylmethyl]-piperazine-1-carboxylic acid ethyl ester, TFA salt]
100 to 500	COC(=O)c1cccc(C2C(C#N)=C(C)NC(C)=C2C#N)c1 [compound 10, 3-(3,5-dicyano-1,4-dihydro-2,6-dimethyl-4-pyridinyl)-benzoic acid, methyl ester]
500 to 2500	CNC(=O)c1cccc(C2C(C#N)=C(C)NC(C)=C2C#N)c1 [compound 12, 3-(3,5-dicyano-2,6-dimethyl-1,4-dihydro-pyridin-4-yl)-N-methyl-benzamide, TFA salt]
500 to 2500	CC1=C(C#N)C(c2cccc(C(N)=O)c2)C(C#N)=C(C)N1 [compound 17, 3-(3,5-dicyano-1,4-dihydro-2,6-dimethyl-4-pyridinyl)-benzamide]
100 to 500	CC1=C(C#N)C(c2cccc(C(=O)Nc3cccnc3)c2)C(C#N)=C(C)N1 [compound 21, 3-(3,5-dicyano-1,4-dihydro-2,6-dimethyl-4-pyridinyl)-N-3-pyridinyl-benzamide]
100 to 500	CNC(=O)c1cccc(C2C(C#N)=C(C)NC(C)=C2C#N)c1 [compound 22, 3-(3,5-dicyano-1,4-dihydro-2,6-dimethyl-4-pyridinyl)-N-methyl-benzamide]
500 to 2500	CC1=C(C#N)C(c2cccc(C(=O)NCCc3ccncc3)c2)C(C#N)=C(C)N1 [compound 23, 3-(3,5-dicyano-1,4-dihydro-2,6-dimethyl-4-pyridinyl)-N-[2-(4-pyridinyl)ethyl]-benzamide]
100 to 500	CC1=C(C#N)C(c2cccc(C(=O)NCCC3CCNCC3)c2)C(C#N)=C(C)N1 [compound 26, 3-(3,5-dicyano-1,4-dihydro-2,6-dimethyl-4-pyridinyl)-N-[2-(4-piperidinyl)ethyl]-benzamide]
500 to 2500	CC(=O)Nc1cccc(C2C(C#N)=C(C)NC(C)=C2C#N)c1 [compound 27, N-[3-(3,5-dicyano-1,4-dihydro-2,6-dimethyl-4-pyridinyl)phenyl]-acetamide]
100 to 500	CC1=C(C#N)C(c2cccc(C(=O)NCCCn3ccnc3)c2)C(C#N)=C(C)N1 [compound 32, 3-(3,5-dicyano-1,4-dihydro-2,6-dimethyl-4-pyridinyl)-N-[3-(1H-imidazol-1-yl)propyl]-benzamide]
500 to 2500	COC(=O)Nc1cccc(C2C(C#N)=C(C)NC(C)=C2C#N)c1 [compound 34, [3-(3,5-dicyano-1,4-dihydro-2,6-dimethyl-4-pyridinyl)phenyl]-carbamic acid, methyl ester]
500 to 2500	CC1=C(C#N)C(c2cccc(NC(=O)c3cccnc3)c2)C(C#N)=C(C)N1 [compound 38, N-[3-(3,5-dicyano-1,4-dihydro-2,6-dimethyl-4-pyridinyl)phenyl]-3-pyridinecarboxamide]
< 100	CC1=C(C#N)C(c2cccc(C(=O)Nc3ccccn3)c2)C(C#N)=C(C)N1 [compound 43, 3-(3,5-dicyano-1,4-dihydro-2,6-dimethyl-4-pyridinyl)-N-2-pyridinyl-benzamide]
500 to 2500	CCOCCCNC(=O)c1cccc(C2C(C#N)=C(C)NC(C)=C2C#N)c1 [compound 45, 3-(3,5-dicyano-1,4-dihydro-2,6-dimethyl-4-pyridinyl)-N-(3-ethoxypropyl)-benzamide]
500 to 2500	CC1=C(C#N)C(c2cccc(NC(=O)CBr)c2)C(C#N)=C(C)N1 [compound 47, 2-bromo-N-[3-(3,5-dicyano-1,4-dihydro-2,6-dimethyl-4-pyridinyl)phenyl]-acetamide]
100 to 500	CC1=C(C#N)C(c2cccc(C(=O)Nc3ccc(C)cn3)c2)C(C#N)=C(C)N1 [compound 51, 3-(3,5-dicyano-1,4-dihydro-2,6-dimethyl-4-pyridinyl)-N-(5-methyl-2-pyridinyl)-benzamide]
500 to 2500	CC1=C(C#N)C(c2cccc(NC(=O)c3ccncc3)c2)C(C#N)=C(C)N1 [compound 57, N-[3-(3,5-dicyano-1,4-dihydro-2,6-dimethyl-4-pyridinyl)phenyl]-4-pyridinecarboxamide]
100 to 500	CC1=C(C#N)C(c2cccc(NC(=O)c3ccccn3)c2)C(C#N)=C(C)N1 [compound 58, N-[3-(3,5-dicyano-1,4-dihydro-2,6-dimethyl-4-pyridinyl)phenyl]-2-pyridinecarboxamide]
500 to 2500	CC1=C(C#N)C(c2cccc(C(=O)Nc3ccc(C(F)(F)F)cn3)c2)C(C#N)=C(C)N1 [compound 60, 3-(3,5-dicyano-1,4-dihydro-2,6-dimethyl-4-pyridinyl)-N-[5-(trifluoromethyl)-2-pyridinyl]-benzamide]
100 to 500	CC1=C(C#N)C(c2cccc(C(=O)Nc3nccs3)c2)C(C#N)=C(C)N1 [compound 61, 3-(3,5-dicyano-1,4-dihydro-2,6-dimethyl-4-pyridinyl)-N-2-thiazolyl-benzamide]
500 to 2500	CC1=C(C#N)C(c2cccc(C(=O)Nc3cccc(C)n3)c2)C(C#N)=C(C)N1 [compound 62, 3-(3,5-dicyano-1,4-dihydro-2,6-dimethyl-4-pyridinyl)-N-(6-methyl-2-pyridinyl)-benzamide]
100 to 500	CC1=C(C#N)C(c2cccc(C(=O)Nc3ccc(N(C)C)cn3)c2)C(C#N)=C(C)N1 [compound 63, 3-(3,5-dicyano-1,4-dihydro-2,6-dimethyl-4-pyridinyl)-N-[5-(dimethylamino)-2-pyridinyl]-benzamide]

Source: US8198456B2, “Dihydropyridine derivatives as useful as protein kinase inhibitors” (Bayer Intellectual Property GmbH, priority 2006, dated 2012)
